The test system of the assay is T-bet. Briefly: T-bet expression in activated primary murine T cells (flow cytometry). Type of assay: cell-based, B6 mice. Conditions: anti-CD3/CD28 activation beads, 3 days, dose-dependent. The text has this:
WU6 is a derivative of WU4, incorporating a trifluoromethane sulfonamide for WU6 instead of an ethyl sulfonamide for WU4. […]. […] Subsequently, we examined the effect of WU6 on the expression of CXCR3 and T-bet (the master transcription factor of Th1 and cytotoxic T cell differentiation) in primary murine T cells.
Figure 8 Effect of WU6 on the expression of CXCR3 and T-bet in vitro and GvHD in mouse model of allo-HCT. (A–D) Primary T cells were isolated from B6 and treated with WU6 at indicated doses for 3 days in the presence of anti-CD3/CD28 activation beads. After 3 days, the expression of CXCR3 (A,B) and T-bet (C,D) in the CD4 and CD8 was determined by flow cytometry. Survival rate and (E) clinical GvHD scores (F) of mice treated with WU6 after allo-HCT. (G,H) % BM-derived B cells (B220+) and T cells (CD3+) were examined in the peripheral blood on day 27 after allo-HCT. * p < 0.05, ** p < 0.01, and *** p < 0.001. All error bars are represented as mean ± standard deviation.
T cells from in vitro primary murine T cell culture, fresh peripheral blood, or whole splenocytes were analyzed according to cell surface and intracellular markers. […] All cells were run on a ZE5 Cell Analyzer (BD Biosciences, Mountain View, CA, USA) or Attune® NxT (Thermofisher Scientific, Waltham, MA, USA) and analyzed with the FlowJo software, version 10.9.0 (FlowJo LLC., Ashland, OR, USA). […]
(In flow cytometry, cells or beads pass a laser one at a time.)

`N#CCC1(n2cc(-c3ncnc4[nH]ccc34)cn2)CC2(CC(NS(=O)(=O)C(F)(F)F)C2)C1` (stereo not shown) [WU6]: the “T-bet expression in CD4 and CD8 T cells” value was “significantly downregulated”.
